Measured values as given in ChEMBL document CHEMBL1201862, “PubChem BioAssay data set” (2004).
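Each compound was tested at five concentrations against cells in 96-well plates for 48 hours. At the GI50, growth is halved.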 The source made the active and inactive calls. Rule as the data show it: active = GI50 up to about 1.1 µM and inactive = higher.

Key:
Assay in all cases: growth of human tumour cells (NCI), 48 h
786-0 = tested on: 786-0
ACHN = tested on: ACHN
BT-549 = tested on: BT-549
HOP-92 = tested on: HOP-92
Hs-578T = tested on: Hs-578T
LOX IMVI = tested on: LOX IMVI
M14 = tested on: M14
MCF7 = tested on: MCF7
MDA-MB-231 = tested on: MDA-MB-231
MDA-MB-435 = tested on: MDA-MB-435
PC-3 = tested on: PC-3
SR = tested on: SR
TK-10 = tested on: TK-10
NCI/ADR-RES = tested on: NCI/ADR-RES
RXF 393 = tested on: RXF 393
T47D = tested on: T47D

Measured: GI50

COc1ccc(-n2cnn3c(=O)c4cn[nH]c4nc23)cc1
inactive: 786-0 > 10 µM | ACHN > 10 µM | BT-549 > 10 µM | Hs-578T > 10 µM | LOX IMVI > 10 µM | M14 > 10 µM | MCF7 > 10 µM | MDA-MB-435 > 10 µM | PC-3 > 10 µM | SR > 10 µM | TK-10 > 10 µM
active: HOP-92 0.748 µM | MDA-MB-231 0.00724 µM

CC1CNC(NS(=O)(=O)c2cc(C(=O)Nc3ccc(F)cc3)c(Cl)cc2S)=NN1 (stereo not given)
inactive: 786-0 > 100 µM | ACHN 77.4 µM | BT-549 > 100 µM | LOX IMVI 54.5 µM | M14 42.3 µM | MCF7 41 µM | MDA-MB-231 82.2 µM | MDA-MB-435 35.7 µM | NCI/ADR-RES > 100 µM | PC-3 30.3 µM | SR 43.5 µM | TK-10 > 100 µM

Cc1ccc2c3c4c(ccc13)C(C)(C)OC4=C(C(C)C)C2=O
inactive: 786-0 66.7 µM | ACHN 84.5 µM | BT-549 26.5 µM | HOP-92 19.5 µM | Hs-578T 8.36 µM | M14 45.1 µM | MCF7 44.7 µM | MDA-MB-231 > 100 µM | MDA-MB-435 59.7 µM | NCI/ADR-RES 19.5 µM | PC-3 14.5 µM | RXF 393 17.4 µM | T47D 53.5 µM | TK-10 67 µM

CN(C)CCCCN1CCc2c(n(C)c3ccccc23)C1=O
inactive: 786-0 33.5 µM | ACHN 72.1 µM | BT-549 45.4 µM | HOP-92 42.6 µM | Hs-578T 33 µM | LOX IMVI 19.4 µM | M14 18.4 µM | MCF7 36.6 µM | MDA-MB-231 29.5 µM | MDA-MB-435 18.5 µM | NCI/ADR-RES > 67.8 µM | RXF 393 42.1 µM | T47D 25.5 µM

COc1cc(N/N=C/C#N)cc(OC)c1OC
inactive: ACHN 4.86 µM | Hs-578T > 10 µM | LOX IMVI 1.54 µM | M14 > 10 µM | MCF7 5.87 µM | MDA-MB-231 > 10 µM | MDA-MB-435 > 10 µM | NCI/ADR-RES > 10 µM | PC-3 > 10 µM | RXF 393 > 10 µM | SR 2.96 µM | T47D 4.65 µM | TK-10 > 10 µM

COC(=O)c1c(-c2ccccc2)c2sc3ccccc3n2c1N
inactive: 786-0 29.3 µM | ACHN 50 µM | BT-549 > 100 µM | HOP-92 29.1 µM | LOX IMVI 17.3 µM | M14 76.6 µM | MCF7 34.8 µM | MDA-MB-231 87.1 µM | MDA-MB-435 81.7 µM | NCI/ADR-RES > 100 µM | PC-3 31.1 µM | RXF 393 19.4 µM | SR 76.2 µM | T47D 20.8 µM | TK-10 54.3 µM

COC(O)C(=O)c1ccc2c(c1)CC1(C2)Cc2cc3c(cc2C1=O)CCC3 (stereo not given)
inactive: 786-0 17.6 µM | ACHN 17 µM | BT-549 17.4 µM | Hs-578T 20.5 µM | LOX IMVI 2.69 µM | M14 19.3 µM | MCF7 17.3 µM | MDA-MB-231 27.7 µM | MDA-MB-435 17.1 µM | NCI/ADR-RES 42.6 µM | PC-3 14.9 µM | SR > 10 µM | T47D 19.2 µM | TK-10 21.6 µM

Cc1ccc(-c2c(C#N)c(-c3ccc([N+](=O)[O-])cc3)c(C#N)c(=O)n2NS(=O)(=O)c2ccccc2)cc1
inactive: 786-0 45.3 µM | ACHN 39.2 µM | BT-549 10.4 µM | HOP-92 13.3 µM | LOX IMVI 25.9 µM | M14 32.5 µM | MCF7 19.2 µM | MDA-MB-231 38.7 µM | MDA-MB-435 54.5 µM | NCI/ADR-RES 26.1 µM | PC-3 25.3 µM | RXF 393 29.4 µM | TK-10 41.3 µM
active: Hs-578T 0.589 µM

N#Cc1cc2c(cc1C#N)/C(=N\c1cccc(N)n1)N/C2=N\c1cccc(N)n1
inactive: 786-0 12.9 µM | ACHN 20.4 µM | BT-549 32.2 µM | Hs-578T 18.5 µM | LOX IMVI 18.8 µM | M14 17.5 µM | MCF7 18.6 µM | MDA-MB-231 15.2 µM | MDA-MB-435 19.1 µM | NCI/ADR-RES 19.2 µM | PC-3 17.9 µM | SR 4.85 µM | T47D 21.8 µM | TK-10 19.3 µM

O=c1cc(N2CCCC2)[nH]c(=O)n1-c1cccc(C(F)(F)F)c1
inactive: 786-0 > 100 µM | ACHN > 100 µM | BT-549 > 100 µM | HOP-92 > 100 µM | Hs-578T > 100 µM | LOX IMVI > 100 µM | M14 > 100 µM | MCF7 > 100 µM | MDA-MB-231 > 100 µM | MDA-MB-435 > 100 µM | NCI/ADR-RES > 100 µM | PC-3 > 100 µM | RXF 393 > 100 µM | T47D > 100 µM | TK-10 > 100 µM

CCc1cc2c(cc1O)CC[C@@H]1[C@@H]2CC[C@]2(C)[C@@H](O)CC[C@@H]12
inactive: 786-0 5.21 µM | ACHN 8.81 µM | LOX IMVI 9.75 µM | M14 6.49 µM | MCF7 3.63 µM | MDA-MB-231 7.93 µM | MDA-MB-435 1.73 µM | NCI/ADR-RES 3.66 µM | PC-3 12.2 µM | RXF 393 3.76 µM | SR 3.08 µM | T47D 7.48 µM | TK-10 21.9 µM

COC(=O)CC1(CNC(=O)OCc2ccccc2)OCCO1
inactive: 786-0 > 100 µM | ACHN > 100 µM | BT-549 > 100 µM | HOP-92 > 100 µM | LOX IMVI > 100 µM | M14 > 100 µM | MCF7 > 100 µM | MDA-MB-231 > 100 µM | MDA-MB-435 > 100 µM | NCI/ADR-RES > 100 µM | PC-3 > 100 µM | RXF 393 > 100 µM | SR > 100 µM | TK-10 > 100 µM

CCOC(=O)/C(=N/Nc1ccc(Cl)cc1)N1C(=S)N(C)N=C(C)C=C1S
inactive: ACHN > 100 µM | HOP-92 50.7 µM | Hs-578T 37.1 µM | M14 > 100 µM | MCF7 > 100 µM | MDA-MB-231 29 µM | MDA-MB-435 > 100 µM | NCI/ADR-RES 42.9 µM | RXF 393 11.7 µM | SR > 100 µM | T47D 29.8 µM | TK-10 30.5 µM

COc1ccc2c(c1)/C(=C/CCN(C)C)c1ccccc1S2
inactive: ACHN > 100 µM | HOP-92 > 100 µM | Hs-578T 33.4 µM | LOX IMVI 95.5 µM | M14 73.8 µM | MCF7 > 10 µM | MDA-MB-231 59 µM | MDA-MB-435 48 µM | NCI/ADR-RES > 100 µM | PC-3 75.9 µM | RXF 393 35.6 µM | SR 69 µM | T47D > 100 µM | TK-10 > 100 µM
